Results on seven molecules are retold here after PubChem BioAssay (NCI).

Holding throughout (test): NCI anticancer screen, dose series, 48 h
Assay [1] deals with ACHN renal.
For assay [2], the system named is HCT-15 colon.
Assay [3] concerns HOP-62 NSCLC.
Assay [4] deals with HS 578T breast.
Assay [5] concerns LOX IMVI melanoma.
The test system of assay [6] is MDA-MB-231 breast.
Assay [7] relates to MDA-MB-435.
The subject of assay [8] is NCI-H460 lung.
The test system of assay [9] is RPMI-8226 leukemia.
Assay [10] deals with UACC-257 melanoma.

Structures are written as SMILES.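 How tested: cells in 96-well plates exposed to compound for 48 hours at five concentrations. Here, GI50 denotes the concentration required for 50% inhibition of growth. Definition used: TGI = concentration required for complete inhibition of growth.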

In the case of `Cc1cc(O)ccc1C1(c2ccc(O)cc2C)OC(=O)c2ccccc21`, the GI50 in assay [1] is 16 µM; in assay [2], 16.3 µM; in [3], 16.7 µM; in [4], 18.9 µM; in [5], 18.5 µM; in assay [6] it was 21.4 µM. Besides, the GI50 is 15.6 µM in assay [7], 19.7 µM in assay [8], 28.1 µM in [9] and 23.8 µM in assay [10]. Also, the TGI in [1] is 31.8 µM; in assay [2] it was 30.7 µM; in [3], 32.5 µM; in assay [4], 46.3 µM; in assay [5], 37.7 µM; in assay [6] it was 48.9 µM. The TGI turned out to be 29.7 µM in assay [7], 40.4 µM in assay [8], 78.7 µM in assay [9] and 46 µM in assay [10].

On to `CC(=O)Oc1ccc(C2OC(c3ccc4ccccc4c3OC(C)=O)=NN2C(C)=O)c(OC(C)=O)c1` (stereo not given), for which the GI50 was 0.264 µM in assay [1]; 0.294 µM in assay [2]; 0.513 µM in assay [3]; 12 µM in [4]; 0.301 µM in assay [5]; 0.506 µM in assay [6]. For the same molecule, the GI50 was 0.638 µM in assay [7], 0.346 µM in assay [8], 0.568 µM in [9] and 0.331 µM in assay [10]. In addition, the TGI in assay [1] is over 100 µM; in assay [2], over 68 µM; in assay [3], over 100 µM; in assay [4], over 100 µM; in assay [5] it was 33.8 µM; in assay [6] it was over 89.6 µM. Further, the TGI in [7] was over 65 µM; in assay [8] it was over 36 µM; in assay [9], over 39.5 µM; in [10], 6.59 µM.

In the case of `NS(=O)(=O)c1ccc(N=Nc2c(O)[nH]c3ccc(C(=O)NCCCn4ccnc4)cc23)cc1`, the GI50 in assay [1], in [2], in assay [3], in [4], in assay [5] and in [6] was over 25 µM throughout. The GI50 in [7], in [8], in assay [9] and in assay [10] was over 25 µM in each case. In addition, the TGI in assay [1], in assay [2], in assay [3], in [4], in assay [5] and in assay [6] was over 25 µM in each case. Moreover, the TGI in assay [7], in assay [8], in assay [9] and in assay [10] was over 25 µM in each case.

With `O=C(O)c1ccc(CSc2nc3ccccc3[nH]2)cc1`, the GI50 in [1], in assay [2], in assay [3], in assay [4], in [5] and in assay [6] was over 100 µM each time. Also, the GI50 in assay [7], in [8], in assay [9] and in [10] was over 100 µM each time. Besides, the TGI in assay [1], in assay [2], in [3], in assay [4], in assay [5] and in assay [6] was over 100 µM in each case. Moreover, the TGI in [7], in assay [8], in assay [9] and in assay [10] was over 100 µM in each case.

For `COc1cccc(C(=O)NNc2nc(Cl)nc(N3CCN(C(c4ccccc4)c4ccccc4)CC3)n2)c1`, the GI50 is 1.76 µM in [1]; 1.9 µM in [2]; 8.71 µM in assay [3]; 1.95 µM in assay [4]; 1.7 µM in [5]; 1.88 µM in assay [6]. Further, the GI50 was 3.96 µM in assay [7], 3.26 µM in [8], over 100 µM in assay [9] and 3.06 µM in assay [10]. Also, the TGI in assay [1] amounted to 3.16 µM; in [2], 3.73 µM; in assay [3], 23.5 µM; in assay [4], 4.9 µM; in assay [5], 3.14 µM; in assay [6], 3.85 µM. Also, the TGI in [7] was 14.2 µM; in assay [8], 12 µM; in assay [9], over 100 µM; in assay [10] it was 11.7 µM.

For `CC(C)c1cnc(-c2cc(Cl)ccc2F)cc1Nc1ccncc1C(=O)NC(CO)CO`, the GI50 in assay [1] was 11.1 µM; in assay [2], 12.9 µM; in assay [3], 12.8 µM; in assay [4], 7.31 µM; in [5], 13.7 µM; in [6], 15.3 µM. The GI50 in assay [7] is 16.1 µM; in assay [8], 12.5 µM; in [9], 13.5 µM; in [10], 16.3 µM. For the same molecule, the TGI in assay [1] was determined as 29 µM; in assay [2], 26.9 µM; in [3], 32.9 µM; in assay [4] it was 30.6 µM; in assay [5] it was 27.9 µM; in assay [6] it was 44.3 µM. For the same molecule, the TGI turned out to be 30.4 µM in assay [7], 28.3 µM in assay [8], 52.6 µM in [9] and 33.7 µM in [10].

Take `CS(=O)(=O)Nc1cc(-c2ccc3ncc(C#N)c(Nc4ccc(F)c(Cl)c4)c3c2)cnc1Cl`: the GI50 was 0.304 µM in assay [1]; 0.167 µM in assay [2]; 0.195 µM in [3]; 0.131 µM in [4]; 0.169 µM in assay [5]; 0.237 µM in [6]. Also, the GI50 in assay [7] was 0.22 µM; in assay [8], 0.301 µM; in assay [9] it was 0.0833 µM; in assay [10], 0.194 µM. For the same molecule, the TGI in assay [1] is over 100 µM; in assay [2], 4.91 µM; in [3] it was 8.42 µM; in assay [4], 0.798 µM; in assay [5], 0.698 µM; in assay [6], 0.786 µM. Besides, the TGI in assay [7] was 1.85 µM; in assay [8] it was over 29.1 µM; in [9] it was 0.469 µM; in assay [10], 2.14 µM.
